Data taken from patent US20150031714A1, “METHODS AND COMPOSITIONS FOR PREVENTION OF ALLERGIC REACTION” (Baylor College of Medicine, priority 2013, published 2015).

System: MEF/GFP-Stat3α cells
Assay: High-throughput fluorescence microscopy (HTFM) cytoplasmic-to-nuclear translocation of GFP-Stat3α
Assay type: cell-based, murine
Settings: Mus musculus, 0.5 h; Table 4; MEF/GFP-Stat3α, IL-6 200 ng/ml and IL-6sR 250 ng/ml 30 min; read-out: HTM IC50
Protocol: Coverslips were examined by confocal fluorescent microscopy using filters to detect GFP (column one), DAPI (column two) or both (merge; column three). In panel B, MEF-GFP-Stat3 cells were grown in 96-well plates with optical glass bottoms and pretreated with the indicated compound at the indicated concentrations in quadruplicate for 1 hour then stimulated with IL-6 (200 ng/ml) and IL-6sR (250 ng/ml) for 30 minutes. Cells were fixed and the plates were examined by high-throughput microscopy to determine the fluorescence intensity in the nucleus (FLIN) and the % ΔFLINMax was calculated as described in Example 1. Data shown are mean±SD and are representative of 2 or more studies. Best-fit curves were generated based on 4 Parameter Logistic Model/Dose Response One Site/XLfit 4.2, IDBS and were used to calculate IC50 (Table 1).
Confocal and high-throughput fluorescence microscopy. Confocal and highthroughput fluorescence microscopy (HTFM) of MEF/GFP-Stat3α cells were performed as described (Huang et al., 2007). Briefly, for confocal fluorescence microscopy, cells were grown in 6-well plates containing a cover slip. For HTFM, cells were seeded into 96-well CC3 plates at a density of 5,000 cells/well using an automated plating system. Cells were cultured under standard conditions until 85-90% confluent. Cells were pretreated with compound for 1 hour at 37° C. then stimulated with IL-6 (200 ng/ml) and IL-6sR (250 ng/ml) for 30 minutes. […] Plates were analyzed by automated HTFM using the Cell Lab IC Image Cytometer (IC100) platform and CytoshopVersion 2.1 analysis software (Beckman Coulter). Nuclear translocation is quantified by using the fraction localized in the nucleus (FLIN) measurement (Sharp et al., 2006). […]
EXP IIB. High throughput fluorescence microscopy (HTFM), cytoplasm-to-nucleus translocation inhibition assays. […] Plates are analyzed by automated HTFM using the Cell Lab IC Image Cytometer (IC100) platform and CytoshopVersion 2.1 analysis software (Beckman Coulter). […]

IC50 [µM]	Structure (SMILES)
131	O=C(O)c1ccc(C=CC(=O)c2ccc3c(c2)OCCO3)cc1 [Cpd3, 4-[3-(2,3-dihydro-1,4-benzodioxin-6-yl)-3-oxo-1-propen-1-yl]benzoic acid]
150	CCOc1cc(C=C2C(=O)c3ccccc3C2=O)cc(Cl)c1OCc1cccc(C(=O)O)c1 [Cpd3-2, 3-({2-chloro-4-[(1,3-dioxo-1,3-dihydro-2H-inden-2-ylidene)methyl]-6-ethoxyphenoxy}methyl)benzoic acid]
